Results reported in patent publication US20130122541A1, “MICROORGANISM PRODUCTION OF HIGH-VALUE CHEMICAL PRODUCTS, AND RELATED COMPOSITIONS, METHODS AND SYSTEMS” (The Regents of the University of Colorado, priority 2010, published 2013).
Like-named read-outs stand apart in the source and are kept apart here.

Experiments:
E. coli [1] = test: microbe, parasite or virus in culture; type: cell-based
Method: (§1) For MIC evaluations, the final results are expressed in chemical agent concentrations determined by analysis of the stock solution by HPLC (i.e., see Subsection IIIb).
The minimum inhibitory concentration (MIC) was determined aerobically in a 96 well-plate format. […] Media supplements were added according to levels reported in the Supplements Table, where specified. Overnight cultures of strains were grown in triplicate in 5 mL LB (with antibiotic where appropriate). A 1% (v/v) inoculum was introduced into a 5 ml culture of M9 minimal media.

[2] = system: Yeast strains (S288C background); test: microbe, parasite or virus in culture; type: cell-based, Saccharomyces cerevisiae; conditions: for MIC: Saccharomyces cerevisiae, read-out: Average MIC Assay Result (g/L 3-HP), MIC of 3-HP; for MIC / average MIC Assay Result (g/L 3-HP): S288C, SD media plus the named supplement(s); for average MIC Assay Result (g/L 3-HP): MIC of 3-HP
Method: The minimum inhibitory concentration (MIC) was determined anaerobically in a 96 well-plate format. […] A 1% (v/v) inoculum was introduced into a 5 ml culture of SD minimal media without vitamins. After the cells reached mid-exponential phase, the culture was diluted to an OD600 of 0.200. The cells were further diluted 1:5 and a 10 μL aliquot was used to inoculate each well of a 96 well plate (˜10^4 cells per well) to total volume of 100 uL. […] Plates were incubated for 72 hours at 30 C. […] Plates were sealed in biobag anaerobic chambers that contained gas generators for anaerobic conditions and incubated for 72 hours at 30 C.

E. coli [3] = test: microbe, parasite or virus in culture; type: cell-based; conditions: anaerobic; for % Increase Over Control: 3-HP MIC with named supplement(s) vs BW25113 in M9 without supplement; for MIC Assay Result (g/L 3-HP): MIC of 3-HP, BW25113, M9 media plus the named supplement(s), 24-hour
Method: as §1
The minimum inhibitory concentration (MIC) was determined anaerobically in a 96 well-plate format. […] Media supplements were added according to levels reported in the Supplements Table, where specified. Overnight cultures of strains were grown in triplicate in 5 mL LB (with antibiotic where appropriate). A 1% (v/v) inoculum was introduced into a 5 ml culture of M9 minimal media.

B. subtilis = test: MIC evaluation of 3-HP, B. subtilis aerobic, M9 media + glutamate, 96 well-plate, 24 h (Common Methods); type: cell-based; conditions: for Avg 24 hr ΔOD600: 3HP tolerance, B. subtilis 168, M9 + glu + trp plus the named supplement(s); for % Increase Over Control: ΔOD600 with named supplement(s) vs B. subtilis 168 without supplement
Method: as §1
The minimum inhibitory concentration (MIC) was determined aerobically in a 96 well-plate format. […] Media supplements were added according to levels reported in the Supplements Table where specified. Overnight cultures of strains were grown in triplicate in 5 mL LB (with antibiotic where appropriate). A 1% (v/v) inoculum was introduced into a 5 ml culture of M9 minimal media+glutamate.

E. coli Mach1-T1R = test: MIC of 3-HP, microaerobic 96 well-plate, MOPS minimal media with supplements (Example 36); type: cell-based, Escherichia coli; conditions: increase of the 3-HP MIC, 24 h
Method: 3-HP was obtained from TCI America (Portland, Oreg.). Significant acrylic acid and 2-oxydipropionic contamination was observed via HPLC analysis. Samples were subsequently treated by diethyl ether extraction to remove acrylic acid and a portion of the 2-oxydipropionic contaminants. Samples were then neutralized with 10 M NaOH to a final pH of 7.0. […] The working stock solution was used for the selection, growth rates and MIC evaluations in this example.
Overnight cultures of strains were grown in 5 ml LB (with antibiotic where appropriate). A 1 v/v % was used to inoculate a 15 ml conical tube filled to the top with MOPS minimal media and capped. After the cells reached mid exponential phase, the culture was diluted to an OD600 of 0.200. The cells were further diluted 1:20 and a 10 ul aliquot was used to inoculate each well (˜10^4 cells per well).

[4] = system: Yeast strains (S288C background); test: microbe, parasite or virus in culture; type: cell-based, Saccharomyces cerevisiae; conditions: for MIC: Saccharomyces cerevisiae, read-out: Average MIC Assay Result (g/L 3-HP), MIC of 3-HP; for MIC / average MIC Assay Result (g/L 3-HP): S288C, SD media plus the named supplement(s); for average MIC Assay Result (g/L 3-HP): MIC of 3-HP; remark: listed apart in the source
Method: The minimum inhibitory concentration (MIC) was determined aerobically in a 96 well-plate format. […] Media supplements were added according to levels reported in the Supplements Table, where specified. Overnight cultures of strains were grown in triplicate in 5 mL SD media with vitamins (Methods in Enzymology vol. 350, page 17 (2002)). A 1% (v/v) inoculum was introduced into a 5 ml culture of SD minimal media without vitamins. After the cells reached mid-exponential phase, the culture was diluted to an OD600 of 0.200. The cells were further diluted 1:5 and a 10 μL aliquot was used to inoculate each well of a 96 well plate (˜10^4 cells per well) to total volume of 100 uL. […] Plates were incubated for 72 hours at 30 C.

[5] = MIC of 3-HP for strain BW25113, M9 media with the named supplement(s), aerobic, 24-hour MIC evaluation
[6] = 3-HP MIC with named supplement(s) vs S288C in SD without supplement, anaerobic
[7] = increase of 3-HP MIC over BW25113 in M9 without supplements, M9 media with the named supplement(s), aerobic
[8] = 3-HP MIC with named supplement(s) vs S288C in SD without supplement, aerobic

## C[C@@H](O)[C@H](N)C(=O)O [Threonine (B)]
E. coli [1]; [5]
  average MIC Assay Result (g/L 3-HP): 32 g/L 3-HP
[2]; [6]
  % Increase Over Control: 2%
[2]; anaerobic
  MIC: 38 g/L

## Nc1ccc(C(=O)O)cc1 [p-aminobenzoate (A)]
E. coli [1]; [5]
  average MIC Assay Result (g/L 3-HP): 35 g/L 3-HP
E. coli [1]; [7]
  % Increase Over Control: 27%
E. coli [3]
  % Increase Over Control: 33%
  MIC Assay Result (g/L 3-HP): 40.0 g/L

## O=C(O)CC(O)(CC(=O)O)C(=O)O [Citrate]
B. subtilis
  Avg 24 hr ΔOD600: 0.30
  % Increase Over Control: 674%

## NCCCCCN [Cadaverine (C)]
E. coli [1]; [5]
  average MIC Assay Result (g/L 3-HP): 35 g/L 3-HP
[2]; [6]
  % Increase Over Control: 60%
[2]; anaerobic
  MIC: 60 g/L

## O=C(O)c1cccc(O)c1O [2,3-didyroxybenzoic acid, 2,3-dihydroxybenzoic acid]
E. coli Mach1-T1R
  MIC increase resulting from supplementation: 33%

## N[C@@H](Cc1c[nH]c2ccccc12)C(=O)O [Tryptophan (A)]
[4]; [8]
  % Increase Over Control: 20%
[4]; aerobic
  MIC: 54 g/L
[2]; [6]
  % Increase Over Control: 47%
[2]; anaerobic
  MIC: 55 g/L

## N[C@@H](CO)C(=O)O [Serine (B)]
E. coli [1]; [5]
  average MIC Assay Result (g/L 3-HP): 32 g/L 3-HP
E. coli [1]; [7]
  % Increase Over Control: 17%
E. coli [3]
  % Increase Over Control: 7%
  MIC Assay Result (g/L 3-HP): 32.1 g/L
[2]; [6]
  % Increase Over Control: 20%
[2]; anaerobic
  average MIC Assay Result (g/L 3-HP): 45 g/L

## N[C@@H](Cc1c[nH]c2ccccc12)C(=O)O [tryptophan]
E. coli Mach1-T1R
  MIC increase resulting from supplementation: 33%

## CCC(=O)C(=O)O [2-oxobutyrate (B)]
[4]; [8]
  % Increase Over Control: 11%
[4]; aerobic
  average MIC Assay Result (g/L 3-HP): 50 g/L
[2]; [6]
  % Increase Over Control: 2%
[2]; anaerobic
  average MIC Assay Result (g/L 3-HP): 38 g/L

## O=C(O)C1=C[C@@H](O)[C@@H](O)[C@H](O)C1 [Shikimate (A)]
E. coli [1]; [5]
  average MIC Assay Result (g/L 3-HP): 28 g/L 3-HP
E. coli [1]; [7]
  % Increase Over Control: 3%
[4]; [8]
  % Increase Over Control: 78%
[4]; aerobic
  average MIC Assay Result (g/L 3-HP): 80 g/L
[2]; [6]
  % Increase Over Control: 60%
[2]; anaerobic
  average MIC Assay Result (g/L 3-HP): 60 g/L

## NNC(=O)c1ccc(O)cc1 [p-hydroxybenzoic acid hydrazide]
E. coli Mach1-T1R
  MIC increase resulting from supplementation: 33%

## Nc1ccc(C(=O)O)cc1 [p-aminobenzoic acid]
E. coli Mach1-T1R
  MIC increase resulting from supplementation: 7%

## O=C(O)O [Bicarbonate (C)]
E. coli [1]; [5]
  average MIC Assay Result (g/L 3-HP): 44 g/L 3-HP
E. coli [1]; [7]
  % Increase Over Control: 59%
[2]; [6]
  % Increase Over Control: 140%
[2]; anaerobic
  average MIC Assay Result (g/L 3-HP): 90 g/L

## NC(=O)CC[C@H](N)C(=O)O [Glutamine (C)]
E. coli [1]; [5]
  average MIC Assay Result (g/L 3-HP): 30 g/L 3-HP
E. coli [1]; [7]
  % Increase Over Control: 9%

## NC(=O)NCCC[C@H](N)C(=O)O [Citrulline (C)]
E. coli [1]; [5]
  average MIC Assay Result (g/L 3-HP): 30 g/L 3-HP
E. coli [1]; [7]
  % Increase Over Control: 9%
[4]; [8]
  % Increase Over Control: 28%
[4]; aerobic
  average MIC Assay Result (g/L 3-HP): 58 g/L
[2]; [6]
  % Increase Over Control: 158%
[2]; anaerobic
  average MIC Assay Result (g/L 3-HP): 97 g/L

## NCCCCNCCCN [Spermidine (C)]
E. coli [1]; [5]
  average MIC Assay Result (g/L 3-HP): 40 g/L 3-HP
[2]; [6]
  % Increase Over Control: 60%
[2]; anaerobic
  MIC: 60 g/L

## Nc1ccc(C(=O)O)cc1 [p-aminobenzoate]
B. subtilis
  Avg 24 hr ΔOD600: 0.07
  % Increase Over Control: 89%

## NCCCC[C@H](N)C(=O)O [Lysine (D)]
E. coli [1]; [5]
  average MIC Assay Result (g/L 3-HP): 37 g/L 3-HP
E. coli [1]; [7]
  % Increase Over Control: 33%
E. coli [3]
  % Increase Over Control: 39%
  MIC Assay Result (g/L 3-HP): 41.7 g/L
[2]; [6]
  % Increase Over Control: 20%
[2]; anaerobic
  average MIC Assay Result (g/L 3-HP): 45 g/L

## NCCCCN [Putrescine(C)]
[4]
  % Increase Over Control: 22%
[2]
  % Increase Over Control: 56%

## NCCCCN [Putrescine (C)]
E. coli [1]
  average MIC Assay Result (g/L 3-HP): 30 g/L 3-HP

## N[C@@H](Cc1ccccc1)C(=O)O [Phenylalanine (A)]
E. coli [1]; [5]
  average MIC Assay Result (g/L 3-HP): 32 g/L 3-HP
E. coli [1]; [7]
  % Increase Over Control: 17%
[2]; [6]
  % Increase Over Control: 2%
[2]; anaerobic
  MIC: 38 g/L

## CSCC[C@H](N)C(=O)O [Methionine]
B. subtilis
  Avg 24 hr ΔOD600: 0.15
  % Increase Over Control: 282%

## Nc1nc(=O)c2c([nH]1)NC[C@@H](CNc1ccc(C(=O)N[C@@H](CCC(=O)O)C(=O)O)cc1)N2 [Tetrahydrofolate (A)]
E. coli [1]; [5]
  average MIC Assay Result (g/L 3-HP): 30 g/L 3-HP
E. coli [1]; [7]
  % Increase Over Control: 9%
E. coli [3]
  % Increase Over Control: 33%
  MIC Assay Result (g/L 3-HP): 40.0 g/L

## CSCC[C@H](N)C(=O)O [Methionine (B)]
E. coli [1]
  % Increase Over Control: 36%
  average MIC Assay Result (g/L 3-HP): 38 g/L 3-HP
[4]
  % Increase Over Control: 59%
[2]
  % Increase Over Control: 167%

## N[C@@H](CCO)C(=O)O [Homoserine (B)]
E. coli [1]; [5]
  average MIC Assay Result (g/L 3-HP): 35 g/L 3-HP

## N[C@@H](CC(=O)O)C(=O)O [Aspartate]
[4]; [8]
  % Increase Over Control: 26%
[4]; aerobic
  MIC: 57 g/L

## NCCC[C@H](N)C(=O)O [Ornithine (C)]
E. coli [1]; [5]
  average MIC Assay Result (g/L 3-HP): 30 g/L 3-HP
E. coli [1]; [7]
  % Increase Over Control: 9%

## NC(CCS)C(=O)O (stereo not shown) [Homocysteine (B)]
E. coli [1]; [5]
  average MIC Assay Result (g/L 3-HP): 30 g/L 3-HP
E. coli [1]; [7]
  % Increase Over Control: 9%
[2]; [6]
  % Increase Over Control: 7%
[2]; anaerobic
  average MIC Assay Result (g/L 3-HP): 40 g/L

## CC[C@H](C)[C@H](N)C(=O)O [Isoleucine (B)]
E. coli [1]; [5]
  average MIC Assay Result (g/L 3-HP): 32 g/L 3-HP
E. coli [1]; [7]
  % Increase Over Control: 17%
[2]; [6]
  % Increase Over Control: 2%
[2]; anaerobic
  average MIC Assay Result (g/L 3-HP): 38 g/L

## NCC(=O)O [Glycine (B)]
E. coli [1]
  % Increase Over Control: 3%
  average MIC Assay Result (g/L 3-HP): 28 g/L 3-HP
[4]; [8]
  % Increase Over Control: 11%
[4]; aerobic
  average MIC Assay Result (g/L 3-HP): 50 g/L
[2]; [6]
  % Increase Over Control: 60%
[2]; anaerobic
  average MIC Assay Result (g/L 3-HP): 60 g/L

## O=C(O)O [Bicarbonate]
B. subtilis
  Avg 24 hr ΔOD600: 0.06
  % Increase Over Control: 56%
